Assay [1] has as its target T1, Carboxy-terminal domain RNA polymerase II polypeptide A small phosphatase 1 (Homo sapiens, UniProt Q9GZU7).
T1 sequence (Q9GZU7 whole entry): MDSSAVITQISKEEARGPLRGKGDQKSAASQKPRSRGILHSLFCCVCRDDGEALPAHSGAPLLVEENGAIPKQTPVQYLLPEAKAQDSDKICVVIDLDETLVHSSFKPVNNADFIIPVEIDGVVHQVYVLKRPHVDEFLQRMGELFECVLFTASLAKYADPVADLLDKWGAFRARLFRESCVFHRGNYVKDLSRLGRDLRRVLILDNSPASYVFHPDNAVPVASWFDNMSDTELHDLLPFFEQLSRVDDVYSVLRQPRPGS
Description: inhibitors of CTDSP1, concentration-response testing, biochemical assay, absorbance-based, actives from ultra-high-throughput screening (AID 540297). The class given is functional.

The next assay addresses T2, Protein skinhead-1 (Caenorhabditis elegans, UniProt P34707).
T2 sequence (P34707 whole entry): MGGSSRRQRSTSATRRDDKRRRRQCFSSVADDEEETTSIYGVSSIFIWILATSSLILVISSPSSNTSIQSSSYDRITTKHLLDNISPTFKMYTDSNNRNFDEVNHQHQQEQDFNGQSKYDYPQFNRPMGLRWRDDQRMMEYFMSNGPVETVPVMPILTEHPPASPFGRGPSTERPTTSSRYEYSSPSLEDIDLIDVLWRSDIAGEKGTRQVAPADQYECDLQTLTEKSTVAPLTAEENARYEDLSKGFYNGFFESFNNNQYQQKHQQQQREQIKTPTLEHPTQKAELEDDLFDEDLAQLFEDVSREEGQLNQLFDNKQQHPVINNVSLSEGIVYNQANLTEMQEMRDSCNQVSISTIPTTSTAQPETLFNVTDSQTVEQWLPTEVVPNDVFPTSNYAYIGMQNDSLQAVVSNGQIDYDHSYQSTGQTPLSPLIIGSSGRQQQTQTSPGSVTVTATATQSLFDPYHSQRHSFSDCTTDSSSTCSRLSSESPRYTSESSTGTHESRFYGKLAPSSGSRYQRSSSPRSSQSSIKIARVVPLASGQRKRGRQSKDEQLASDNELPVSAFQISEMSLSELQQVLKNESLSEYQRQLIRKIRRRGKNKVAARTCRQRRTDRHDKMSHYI
In kind it is functional.

Assay [2] has as its target T3, Sentrin-specific protease 8 (Homo sapiens, UniProt Q96LD8).
T3 sequence (Q96LD8 whole entry): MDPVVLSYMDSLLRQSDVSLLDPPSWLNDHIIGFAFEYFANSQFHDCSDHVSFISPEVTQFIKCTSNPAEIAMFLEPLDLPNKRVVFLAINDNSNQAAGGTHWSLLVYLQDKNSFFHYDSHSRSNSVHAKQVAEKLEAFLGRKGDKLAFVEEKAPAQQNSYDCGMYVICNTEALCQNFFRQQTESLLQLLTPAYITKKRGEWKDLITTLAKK
In kind it is functional.

The target in another assay is Nonstructural protein 1 (Influenza A virus, UniProt Q194T2). In kind it is functional, Influenza A virus (A/California/07/2009(H1N1)).
Assay [3] addresses T4, Zinc finger protein mex-5 (Caenorhabditis elegans, UniProt Q9XUB2).
T4 sequence (Q9XUB2 whole entry): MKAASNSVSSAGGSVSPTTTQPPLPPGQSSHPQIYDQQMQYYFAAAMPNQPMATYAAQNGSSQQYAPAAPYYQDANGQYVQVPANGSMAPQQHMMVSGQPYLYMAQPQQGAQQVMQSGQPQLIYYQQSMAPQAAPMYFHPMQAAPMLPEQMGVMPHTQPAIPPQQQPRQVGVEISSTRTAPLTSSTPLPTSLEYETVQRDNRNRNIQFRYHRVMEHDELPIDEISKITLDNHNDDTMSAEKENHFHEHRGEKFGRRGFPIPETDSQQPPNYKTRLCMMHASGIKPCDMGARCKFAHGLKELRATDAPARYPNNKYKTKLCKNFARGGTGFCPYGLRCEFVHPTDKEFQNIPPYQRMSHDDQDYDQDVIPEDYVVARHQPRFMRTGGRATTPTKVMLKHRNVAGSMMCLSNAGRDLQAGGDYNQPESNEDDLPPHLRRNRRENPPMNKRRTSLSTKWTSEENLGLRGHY
Description: MEX-5/TCR-2 RNA interaction inhibitors, dose response, biochemical, C. elegans, fluorescence polarization (AID 1960). Background: In fluorescence polarisation assays a small probe gives low polarisation when free and higher when bound to something large.

The target of assay [4] is Ribosomal protein S6 kinase alpha-3 (Homo sapiens, UniProt P51812). The class given is functional.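 Further: measured within a kinome-wide profiling panel.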
For assay [5], the target named is 5'-AMP-activated protein kinase catalytic subunit alpha-1 (Homo sapiens, UniProt Q13131). The class given is functional.
The target of assay [6] is Serine/threonine-protein kinase PLK4 (Homo sapiens, UniProt O00444). In kind it is functional.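 Further: PLK4 measured as one member of a kinome-wide kinase profiling panel.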
In assay [7] the target is Serine/threonine-protein kinase 17A (Homo sapiens, UniProt Q9UEE5). In kind it is functional.
Assay [8] addresses Death-associated protein kinase 3 (Homo sapiens, UniProt O43293). The class given is functional.
In the next assay the target is Aurora kinase A (Homo sapiens, UniProt O14965). In kind it is functional.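 Further: value from the Navigating the Kinome kinase panel profiling, panel entry STK6.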
Assay [9] addresses MAP kinase-activated protein kinase 5 (Homo sapiens, UniProt Q8IW41). In kind it is functional.
Assay [10] deals with Casein kinase II subunit alpha (Homo sapiens, UniProt P68400). The class given is functional.
Assay [11] deals with Serine/threonine-protein kinase PAK 1 (Homo sapiens, UniProt Q13153). The class given is functional.
Assay [12] addresses Ribosomal protein S6 kinase alpha-5 (Homo sapiens, UniProt O75582). In kind it is functional.
The target of assay [13] is Serine/threonine-protein kinase TAO1 (Homo sapiens, UniProt Q7L7X3). In kind it is functional.
Assay [14] has as its target Homeodomain-interacting protein kinase 2 (Homo sapiens, UniProt Q9H2X6). The class given is functional.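 Further: measured within a kinome-wide kinase profiling panel, HIPK2 being one panel member.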
The target of another assay is Insulin receptor (Homo sapiens, UniProt P06213). The class given is functional.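 Further: insulin receptor kinase tested as one member of a kinome-wide kinase panel.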
Assay [15] has as its target Serine/threonine-protein kinase pim-3 (Homo sapiens, UniProt Q86V86). The class given is functional.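 Further: value obtained as one member of a broad kinase panel profiling effort.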
Assay [16] concerns the target Interleukin-1 receptor-associated kinase 4 (Homo sapiens, UniProt Q9NWZ3). The class given is functional.
For assay [17], the target named is 3-phosphoinositide-dependent protein kinase 1 (Homo sapiens, UniProt O15530). In kind it is functional.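 Further: value comes from the Navigating the Kinome panel, PDPK1 member.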
The target of assay [18] is Fibroblast growth factor receptor 3 (Homo sapiens, UniProt P22607). In kind it is functional.
Assay [19] has as its target BDNF/NT-3 growth factors receptor (Homo sapiens, UniProt Q16620). In kind it is functional.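 Further: NTRK2 measured as one member of a broad kinome-wide kinase profiling panel.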

The record followed here is ChEMBL document CHEMBL1201862, “PubChem BioAssay data set” (2004).

Calls of active or inactive are those of the source.

Homeodomain-interacting protein kinase 2, sequence (Q9H2X6 whole entry): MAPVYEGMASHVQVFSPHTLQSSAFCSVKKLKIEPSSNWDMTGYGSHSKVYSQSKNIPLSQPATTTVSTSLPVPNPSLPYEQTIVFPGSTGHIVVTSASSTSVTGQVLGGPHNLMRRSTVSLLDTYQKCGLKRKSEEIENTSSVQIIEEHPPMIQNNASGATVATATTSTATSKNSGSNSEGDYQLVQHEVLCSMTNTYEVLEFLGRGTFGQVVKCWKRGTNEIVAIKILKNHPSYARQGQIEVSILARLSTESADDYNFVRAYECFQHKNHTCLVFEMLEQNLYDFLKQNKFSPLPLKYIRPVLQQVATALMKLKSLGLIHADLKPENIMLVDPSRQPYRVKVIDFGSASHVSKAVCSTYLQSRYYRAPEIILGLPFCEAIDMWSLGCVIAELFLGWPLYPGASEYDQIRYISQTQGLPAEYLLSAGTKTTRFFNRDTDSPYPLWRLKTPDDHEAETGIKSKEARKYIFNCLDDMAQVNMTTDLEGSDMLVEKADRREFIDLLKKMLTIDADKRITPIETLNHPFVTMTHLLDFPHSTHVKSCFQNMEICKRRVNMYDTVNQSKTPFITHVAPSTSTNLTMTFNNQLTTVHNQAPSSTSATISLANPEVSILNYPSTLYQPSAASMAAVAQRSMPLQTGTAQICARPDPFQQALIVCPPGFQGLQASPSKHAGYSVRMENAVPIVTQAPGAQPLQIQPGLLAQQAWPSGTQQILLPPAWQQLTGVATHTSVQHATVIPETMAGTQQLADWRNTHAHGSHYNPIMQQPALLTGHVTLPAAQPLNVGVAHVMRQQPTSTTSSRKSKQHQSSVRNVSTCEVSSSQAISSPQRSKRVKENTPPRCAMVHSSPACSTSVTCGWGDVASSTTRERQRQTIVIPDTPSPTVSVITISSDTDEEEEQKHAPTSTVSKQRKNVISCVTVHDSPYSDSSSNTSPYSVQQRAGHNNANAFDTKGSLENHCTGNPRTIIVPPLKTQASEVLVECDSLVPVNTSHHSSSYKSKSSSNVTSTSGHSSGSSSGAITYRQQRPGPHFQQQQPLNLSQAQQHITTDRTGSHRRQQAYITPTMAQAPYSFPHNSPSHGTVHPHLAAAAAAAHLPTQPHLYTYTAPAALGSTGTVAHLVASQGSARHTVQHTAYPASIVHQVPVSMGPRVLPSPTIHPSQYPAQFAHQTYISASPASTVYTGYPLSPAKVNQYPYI
BDNF/NT-3 growth factors receptor, sequence (Q16620 whole entry): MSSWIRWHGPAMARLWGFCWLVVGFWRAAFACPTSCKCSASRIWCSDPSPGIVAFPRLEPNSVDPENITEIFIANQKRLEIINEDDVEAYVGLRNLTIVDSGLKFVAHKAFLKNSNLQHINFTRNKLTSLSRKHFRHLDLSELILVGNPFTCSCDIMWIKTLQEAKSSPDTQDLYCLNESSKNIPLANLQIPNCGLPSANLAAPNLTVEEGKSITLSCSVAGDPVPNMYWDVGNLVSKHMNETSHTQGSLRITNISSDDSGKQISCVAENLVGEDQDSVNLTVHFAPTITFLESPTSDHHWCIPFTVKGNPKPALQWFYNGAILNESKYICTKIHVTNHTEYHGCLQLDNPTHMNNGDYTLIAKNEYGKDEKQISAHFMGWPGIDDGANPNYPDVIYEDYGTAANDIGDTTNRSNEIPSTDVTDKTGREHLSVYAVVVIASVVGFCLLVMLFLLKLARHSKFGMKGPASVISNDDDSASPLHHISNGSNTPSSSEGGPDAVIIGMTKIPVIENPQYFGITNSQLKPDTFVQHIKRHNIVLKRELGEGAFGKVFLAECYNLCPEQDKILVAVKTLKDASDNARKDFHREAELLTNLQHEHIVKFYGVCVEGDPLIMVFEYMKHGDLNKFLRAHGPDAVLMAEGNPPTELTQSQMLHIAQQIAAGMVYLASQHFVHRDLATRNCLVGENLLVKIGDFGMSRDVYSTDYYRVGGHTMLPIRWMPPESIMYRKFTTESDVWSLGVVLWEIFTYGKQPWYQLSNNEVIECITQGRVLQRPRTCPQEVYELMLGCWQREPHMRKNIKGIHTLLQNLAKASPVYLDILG
Aurora kinase A, sequence (O14965 whole entry): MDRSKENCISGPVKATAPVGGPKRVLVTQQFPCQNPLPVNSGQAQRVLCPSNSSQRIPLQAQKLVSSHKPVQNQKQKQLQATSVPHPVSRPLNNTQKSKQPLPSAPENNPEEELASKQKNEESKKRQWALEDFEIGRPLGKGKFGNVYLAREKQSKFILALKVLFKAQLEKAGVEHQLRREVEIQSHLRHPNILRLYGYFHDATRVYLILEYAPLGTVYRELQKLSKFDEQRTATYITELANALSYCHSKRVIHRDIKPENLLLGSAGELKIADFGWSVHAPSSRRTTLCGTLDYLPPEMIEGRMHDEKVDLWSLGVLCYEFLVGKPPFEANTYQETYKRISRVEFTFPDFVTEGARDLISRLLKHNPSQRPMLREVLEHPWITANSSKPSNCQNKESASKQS
MAP kinase-activated protein kinase 5, sequence (Q8IW41 whole entry): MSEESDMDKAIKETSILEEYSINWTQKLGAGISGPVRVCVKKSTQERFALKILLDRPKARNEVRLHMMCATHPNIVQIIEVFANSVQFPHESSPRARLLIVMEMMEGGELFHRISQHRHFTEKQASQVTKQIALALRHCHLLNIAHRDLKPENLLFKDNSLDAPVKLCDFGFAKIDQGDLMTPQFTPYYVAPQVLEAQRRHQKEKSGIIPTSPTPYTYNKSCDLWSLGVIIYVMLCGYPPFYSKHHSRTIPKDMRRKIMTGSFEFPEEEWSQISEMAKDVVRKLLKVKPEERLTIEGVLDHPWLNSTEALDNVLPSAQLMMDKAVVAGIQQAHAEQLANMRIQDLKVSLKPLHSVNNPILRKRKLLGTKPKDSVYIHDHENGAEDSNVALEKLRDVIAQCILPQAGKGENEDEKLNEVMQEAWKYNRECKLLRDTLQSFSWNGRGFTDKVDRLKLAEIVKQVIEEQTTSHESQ
Interleukin-1 receptor-associated kinase 4, sequence (Q9NWZ3 whole entry): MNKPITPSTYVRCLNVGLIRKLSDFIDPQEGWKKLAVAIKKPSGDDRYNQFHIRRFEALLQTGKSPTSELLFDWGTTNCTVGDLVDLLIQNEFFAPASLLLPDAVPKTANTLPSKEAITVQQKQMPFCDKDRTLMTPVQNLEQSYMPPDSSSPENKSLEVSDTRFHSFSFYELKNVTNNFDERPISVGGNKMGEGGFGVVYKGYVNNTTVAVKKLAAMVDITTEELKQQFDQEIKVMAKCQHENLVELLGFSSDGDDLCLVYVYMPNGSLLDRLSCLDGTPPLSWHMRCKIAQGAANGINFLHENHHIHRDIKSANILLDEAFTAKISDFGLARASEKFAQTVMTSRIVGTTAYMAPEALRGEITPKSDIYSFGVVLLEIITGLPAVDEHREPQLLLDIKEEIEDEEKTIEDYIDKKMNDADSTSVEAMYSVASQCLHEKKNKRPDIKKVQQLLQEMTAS
Serine/threonine-protein kinase PAK 1, sequence (Q13153 whole entry): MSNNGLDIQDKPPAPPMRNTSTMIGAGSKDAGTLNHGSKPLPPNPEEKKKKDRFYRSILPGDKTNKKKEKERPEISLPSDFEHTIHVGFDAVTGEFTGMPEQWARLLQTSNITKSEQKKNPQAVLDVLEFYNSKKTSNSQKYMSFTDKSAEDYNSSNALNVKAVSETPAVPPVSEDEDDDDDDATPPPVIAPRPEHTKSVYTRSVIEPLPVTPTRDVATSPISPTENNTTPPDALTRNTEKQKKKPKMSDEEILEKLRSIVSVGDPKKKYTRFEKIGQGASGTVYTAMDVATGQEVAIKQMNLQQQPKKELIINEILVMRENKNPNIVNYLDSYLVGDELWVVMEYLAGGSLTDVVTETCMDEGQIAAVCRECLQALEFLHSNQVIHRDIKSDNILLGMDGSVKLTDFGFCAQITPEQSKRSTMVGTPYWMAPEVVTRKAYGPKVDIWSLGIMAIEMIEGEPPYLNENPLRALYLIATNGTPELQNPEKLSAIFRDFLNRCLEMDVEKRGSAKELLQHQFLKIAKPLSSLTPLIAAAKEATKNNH
5'-AMP-activated protein kinase catalytic subunit alpha-1, sequence (Q13131 whole entry): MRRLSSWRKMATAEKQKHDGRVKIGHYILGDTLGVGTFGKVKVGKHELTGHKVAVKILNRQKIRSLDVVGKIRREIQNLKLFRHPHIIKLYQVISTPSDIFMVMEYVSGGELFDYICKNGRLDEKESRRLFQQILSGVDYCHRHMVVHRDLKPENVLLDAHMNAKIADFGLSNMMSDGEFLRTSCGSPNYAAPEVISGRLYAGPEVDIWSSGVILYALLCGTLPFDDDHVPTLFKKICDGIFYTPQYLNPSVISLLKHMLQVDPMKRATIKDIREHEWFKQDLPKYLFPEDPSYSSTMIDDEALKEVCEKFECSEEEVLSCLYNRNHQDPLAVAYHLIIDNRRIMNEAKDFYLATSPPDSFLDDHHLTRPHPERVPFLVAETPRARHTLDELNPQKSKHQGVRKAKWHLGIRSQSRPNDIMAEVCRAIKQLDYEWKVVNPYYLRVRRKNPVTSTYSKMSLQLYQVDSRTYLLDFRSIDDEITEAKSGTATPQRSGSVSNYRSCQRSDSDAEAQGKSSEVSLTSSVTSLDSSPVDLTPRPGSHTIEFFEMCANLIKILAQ
3-phosphoinositide-dependent protein kinase 1, sequence (O15530 whole entry): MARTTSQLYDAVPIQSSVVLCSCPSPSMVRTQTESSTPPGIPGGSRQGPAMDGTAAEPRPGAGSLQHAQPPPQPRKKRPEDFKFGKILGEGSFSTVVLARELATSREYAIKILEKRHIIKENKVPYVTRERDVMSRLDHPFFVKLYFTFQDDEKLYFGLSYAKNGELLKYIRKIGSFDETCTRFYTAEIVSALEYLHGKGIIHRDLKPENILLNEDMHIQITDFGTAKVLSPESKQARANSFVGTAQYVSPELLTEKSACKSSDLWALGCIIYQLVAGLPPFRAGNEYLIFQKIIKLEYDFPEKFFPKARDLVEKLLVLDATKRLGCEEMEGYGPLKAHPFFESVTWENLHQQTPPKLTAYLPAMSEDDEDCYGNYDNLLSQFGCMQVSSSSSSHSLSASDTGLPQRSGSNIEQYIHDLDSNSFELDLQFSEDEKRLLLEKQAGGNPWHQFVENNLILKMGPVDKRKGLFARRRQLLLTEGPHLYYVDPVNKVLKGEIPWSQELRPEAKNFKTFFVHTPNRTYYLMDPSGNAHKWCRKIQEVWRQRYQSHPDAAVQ

For the compound `O=C1N=C(NS(=O)(=O)Cc2ccccc2)S/C1=C1\C(=O)Nc2ccccc21`, the IC50 in assay [1] was 16700 nM (active).
Consider `Clc1ccc2nc(-c3ccc(Br)s3)cn2c1`, for which the IC50 on Protein skinhead-1 is 57500 nM (inactive).
In the case of `O=C(CCc1ccccc1)NNc1cc(N2CCCCC2)nc(N2CCCCC2)n1`, in assay [2], the IC50 is 605 nM (active).
For `Oc1ccc(N=Nc2c(O)ccc3ccccc23)cc1`, on Nonstructural protein 1, the IC50 is 17500 nM (active).
Turning to `O=C(O)C1Nc2c(O)cc(Cl)c([N+](=O)[O-])c2C2C=CCC12` (stereo not drawn), the EC50 in assay [3] is 19100 nM (inconclusive).
Consider `Cc1n[nH]c2ccc(-c3cncc(OCC(N)Cc4cccc(Cl)c4)c3)cc12` (stereo not drawn), for which the Ki was 15.8 nM (active) in assay [4]; 10 nM (active) in assay [5]; 1260 nM (active) in assay [6]; 501 nM (active) in assay [7]; 79.4 nM (active) in assay [8]; 631 nM (active) at Aurora kinase A. Further, the Ki in [9] is > 1580 nM (inactive); in assay [10], 3980 nM (active); in [11], 631 nM (active); in [12], 5.01 nM (active); in [13], 316 nM (active); in [14] it was 79.4 nM (active). The Ki on Insulin receptor is 3160 nM (active); in [15] it was 10 nM (active); in [16], 158 nM (active); in [17] it was 2000 nM (active); in assay [18], > 2000 nM (inactive); in [19], > 5010 nM (inactive).

The IC50 is the concentration that gives 50% inhibition. The term EC50 denotes the concentration needed to bring the measured effect to its halfway point. A word on the Ki: it is the dissociation constant of the complex between target and ligand, obtained from inhibition or displacement.
